Results as given in patent US5654274A, “Biologically active peptides having N-terminal substitutions” (priority 1995, dated 1997).
Square brackets hold non-standard residues; d marks the D form. Ends that are not written are not given here. Peptide text beside a SMILES is read from it. * marks the point of attachment. hArg = N=C(N)NCCCC[C@H](N)C(=O)O; Octanoyl = CCCCCCCC(=O)*

Test system: P. gingivalis
Assay: Anaerobic antimicrobial susceptibility test (NCCLS M11-T2), P. gingivalis
Type: cell-based
Conditions: strain W50, BHI broth, 24-48 hours

Compound | MIC P. gingivalis (strain) W50 [μl/ml]
CC[C@H](C)[C@H](NC(=O)[C@H](CCCCNC(=N)N)NC(=O)CNC(=O)[C@H](C)NC(=O)[C@@H](NC(=O)[C@H](CCCCNC(=N)N)NC(=O)[C@H](C)NC(=O)[C@@H](NC(=O)[C@H](CCCCNC(=N)N)NC(=O)CNC(=O)[C@H](C)NC(=O)[C@@H](NC(=O)[C@H](CCCCNC(=N)N)NC(=O)[C@H](C)NC(=O)[C@@H](NC(=O)[C@H](CCCCNC(=N)N)NC(=O)CNC(=O)[C@H](C)NC(=O)[C@@H](NC(=O)[C@@H](N)CCCCNC(=N)N)[C@@H](C)CC)[C@@H](C)CC)[C@@H](C)CC)[C@@H](C)CC)[C@@H](C)CC)C(=O)N[C@@H](C)C(N)=O [(SEQ ID NO: 66)-NH2] (H-[hArg]IAG[hArg]IA[hArg]IAG[hArg]IA[hArg]IAG[hArg]IA-NH2) | 4
CCCCCCCC(=O)N[C@@H](CCCCN)C(=O)N[C@H](C(=O)N[C@@H](C)C(=O)NCC(=O)N[C@@H](CCCCN)C(=O)N[C@H](C(=O)N[C@@H](C)C(=O)N[C@@H](CCCCN)C(=O)N[C@H](C(=O)N[C@@H](C)C(=O)NCC(=O)N[C@@H](CCCCN)C(=O)N[C@H](C(=O)N[C@@H](C)C(=O)N[C@@H](CCCCN)C(=O)N[C@H](C(=O)N[C@@H](C)C(=O)NCC(=O)N[C@@H](CCCCN)C(=O)N[C@H](C(=O)N[C@@H](C)C(N)=O)[C@@H](C)CC)[C@@H](C)CC)[C@@H](C)CC)[C@@H](C)CC)[C@@H](C)CC)[C@@H](C)CC [Oct-(SEQ ID NO: 27)-NH2] (Octanoyl-KIAGKIAKIAGKIAKIAGKIA-NH2) | 16
CCCCCCCC(=O)N[C@@H](CCCCN)C(=O)N[C@H](C(=O)N[C@@H](C)C(=O)NCC(=O)N[C@@H](CCCCN)C(=O)N[C@H](C(=O)N[C@@H](C)C(=O)N[C@@H](CCCCN)C(=O)N[C@H](C(=O)N[C@@H](C)C(=O)NCC(=O)N[C@@H](CCCCN)C(=O)N[C@H](C(=O)N[C@@H](C)C(=O)N[C@@H](CCCCN)C(=O)N[C@H](C(=O)N[C@@H](C)C(=O)NCC(=O)N[C@@H](CCCCN)C(=O)N[C@H](C(=O)N[C@@H](C)C(=O)O)[C@@H](C)CC)[C@@H](C)CC)[C@@H](C)CC)[C@@H](C)CC)[C@@H](C)CC)[C@@H](C)CC [Oct-(SEQ ID NO: 27)-OH] (Octanoyl-KIAGKIAKIAGKIAKIAGKIA-OH) | 1
CCCCCCCC(=O)N[C@@H](CCCCNC(=N)N)C(=O)N[C@H](C(=O)N[C@@H](C)C(=O)NCC(=O)N[C@@H](CCCCNC(=N)N)C(=O)N[C@H](C(=O)N[C@@H](C)C(=O)N[C@@H](CCCCNC(=N)N)C(=O)N[C@H](C(=O)N[C@@H](C)C(=O)NCC(=O)N[C@@H](CCCCNC(=N)N)C(=O)N[C@H](C(=O)N[C@@H](C)C(=O)N[C@@H](CCCCNC(=N)N)C(=O)N[C@H](C(=O)N[C@@H](C)C(=O)NCC(=O)N[C@@H](CCCCNC(=N)N)C(=O)N[C@H](C(=O)N[C@@H](C)C(N)=O)[C@@H](C)CC)[C@@H](C)CC)[C@@H](C)CC)[C@@H](C)CC)[C@@H](C)CC)[C@@H](C)CC [Oct-(SEQ ID NO: 66)-NH2] (Octanoyl-[hArg]IAG[hArg]IA[hArg]IAG[hArg]IA[hArg]IAG[hArg]IA-NH2) | 2
CCCCCCCC(=O)N[C@@H](CCCCN)C(=O)N[C@H](C(=O)N[C@@H](C)C(=O)N[C@@H](CCCCN)C(=O)N[C@@H](CCCCN)C(=O)N[C@H](C(=O)N[C@@H](C)C(=O)N[C@@H](CCCCN)C(=O)N[C@H](C(=O)N[C@@H](C)C(=O)N[C@@H](CCCCN)C(=O)N[C@@H](CCCCN)C(=O)N[C@H](C(=O)N[C@@H](C)C(=O)N[C@@H](CCCCN)C(=O)N[C@H](C(=O)N[C@@H](C)C(=O)N[C@@H](CCCCN)C(=O)N[C@@H](CCCCN)C(=O)N[C@H](C(=O)N[C@@H](C)C(=O)O)[C@@H](C)CC)[C@@H](C)CC)[C@@H](C)CC)[C@@H](C)CC)[C@@H](C)CC)[C@@H](C)CC [Oct-(SEQ ID NO: 86)-OH] (Octanoyl-KIAKKIAKIAKKIAKIAKKIA-OH) | 1
KIAGKIAKIAGKIAKIAGKIA-NH2 [(SEQ ID NO: 27)-NH2] | 4

Target: not listed separately
Assay: Inhibition of lipopolysaccharide binding to dye (LPS50)
Parameters: species or system E. coli
Conditions: concentration of peptide necessary to inhibit the binding of 50% of the lipopolysaccharide to the dye; absorbance at 460 nm and 510 nm
Procedure: A stock solution (10×) of 0.6 mM dye is prepared by adding 1.68 mg of (1-ethyl-2-(3-[1-ethylnaphthol(1,2-d)- thiazolin-2-ylidene]-2-methylpropenyl)naphtho-(1,2-d)-thiazolium bromide (Signa E-7762) to 5 ml of 200 proof ethanol. 1 ml of this solution was added to 9 ml ethanol to give 0.06 mM of dye (60 μM dye).
A stock solution of lipopolysaccharide (LPS) from E. coli serotype 0111:B4 was prepared at 1.5 mg/ml. 400 μl of this solution was mixed with 4.6 ml pyrogen free water to give a 120 μg/ml solution.
Row 1 and rows 3 through 12 of a microtiter plate were filled with 100 μl of pyrogen free water or with 10 mg/ml of bovine serum albumin. 200 μl of peptide then is added to row 2 of the microtiter plate at a concentration of […]. 200 μl of pyrogen free water is added to each of the control wells in two lanes (having dye and LPS but no peptide or having dye and no LPS and no peptide). 100 μl then is serially diluted from row 2 through row 12 of the microtiter plate. 50 μl of PBS (pH 7.4) and 50 μl of the LPS solution then are added to row 1 of the plate (blank wells).
Equal volumes of the LPS solution, the dye, and PBS (pH 7.4, approx. 150 mM) are mixed to form a dye-buffer--LPS mixture having LPS at a final concentration of 40 μg/mi and dye at a final concentration of 20 μM. The dye-buffer LPS mixture then is incubated for 10 minutes at room temperature in the dark.
The plate is incubated for 10 minutes at room temperature in the dark, and the absorbance at 460 nm and 510 nm is read. From these absorbances, the LPS50 value, which is the concentration in mg/ml of peptide necessary to inhibit the binding of 50% of the lipopolysaccharide to the dye, is calculated.

Compound | LPS50 [µg/mL]
CCCCCCCC(=O)N[C@@H](CC(C)C)C(=O)N[C@@H](CCCCN)C(=O)N[C@@H](CCCCN)C(=O)N[C@@H](CC(C)C)C(=O)N[C@@H](CCCCN)C(=O)N[C@@H](CCCCN)C(=O)N[C@@H](CC(C)C)C(N)=O [Oct-(SEQ ID NO: 106)-NH2] (Octanoyl-LKKLKKL-NH2) | 6.80
CCCCCCCC(=O)N[C@@H](CC(C)C)C(=O)N[C@@H](CC(C)C)C(=O)N[C@@H](CCCCN)C(=O)N[C@@H](CCCCN)C(=O)N[C@@H](CC(C)C)C(=O)N[C@@H](CCCCN)C(=O)N[C@@H](CCCCN)C(=O)N[C@@H](CC(C)C)C(N)=O [Oct-(SEQ ID NO: 107)-NH2] (Octanoyl-LLKKLKKL-NH2) | 15.00
CCCCCCCC(=O)N[C@@H](CCCCN)C(=O)N[C@@H](CCCCN)C(=O)N[C@@H](CC(C)C)C(=O)N[C@@H](CC(C)C)C(=O)N[C@@H](CCCCN)C(=O)N[C@@H](CCCCN)C(=O)N[C@@H](CC(C)C)C(=O)N[C@@H](CCCCN)C(=O)N[C@@H](CCCCN)C(=O)N[C@@H](CC(C)C)C(N)=O [Oct-(SEQ ID NO: 109)-NH2] (Octanoyl-KKLLKKLKKL-NH2) | 0.60
CCCCCCCC(=O)N[C@@H](CC(C)C)C(=O)N[C@@H](CCCCN)C(=O)N[C@@H](CCCCN)C(=O)N[C@@H](CC(C)C)C(=O)N[C@@H](CC(C)C)C(=O)N[C@@H](CCCCN)C(=O)N[C@@H](CCCCN)C(=O)N[C@@H](CC(C)C)C(=O)N[C@@H](CCCCN)C(=O)N[C@@H](CCCCN)C(=O)N[C@@H](CC(C)C)C(N)=O [Oct-(SEQ ID NO: 110)-NH2] (Octanoyl-LKKLLKKLKKL-NH2) | 0.84
CCCCCCCC(=O)N[C@@H](C)C(=O)N[C@@H](CCCCN)C(=O)N[C@@H](CCCCN)C(=O)N[C@@H](CC(C)C)C(=O)N[C@@H](CC(C)C)C(=O)N[C@@H](CCCCN)C(=O)N[C@@H](CCCCN)C(=O)N[C@@H](CC(C)C)C(=O)N[C@@H](CCCCN)C(=O)N[C@@H](CCCCN)C(=O)N[C@@H](CC(C)C)C(N)=O [Oct-(SEQ ID NO: 111)-NH2] (Octanoyl-AKKLLKKLKKL-NH2) | 1.00
CCCCCCCC(=O)N[C@@H](CCCCN)C(=O)N[C@@H](Cc1ccccc1)C(=O)N[C@@H](C)C(=O)N[C@@H](CCCCN)C(=O)N[C@@H](Cc1ccccc1)C(=O)N[C@@H](C)C(=O)N[C@@H](CCCCN)C(=O)N[C@@H](CCCCN)C(=O)N[C@@H](Cc1ccccc1)C(=O)N[C@@H](C)C(N)=O [Oct-(SEQ ID NO: 121)-NH2] (Octanoyl-KFAKFAKKFA-NH2) | 20.00
CCCCCCCC(=O)N[C@@H](CCCCN)C(=O)N[C@@H](CCCCN)C(=O)N[C@@H](CC(C)C)C(=O)N[C@@H](C)C(=O)N[C@@H](CCCCN)C(=O)N[C@@H](CC(C)C)C(=O)N[C@@H](C)C(=O)N[C@@H](CCCCN)C(=O)N[C@@H](CCCCN)C(=O)N[C@@H](CC(C)C)C(=O)N[C@@H](C)C(N)=O [Oct-(SEQ ID NO: 123)-NH2] (Octanoyl-KKLAKLAKKLA-NH2) | 1.70
CCCCCCCC(=O)N[C@@H](CC(C)C)C(=O)N[C@@H](CCCCN)C(=O)N[C@@H](CCCCN)C(=O)N[C@@H](CC(C)C)C(=O)N[C@@H](CC(C)C)C(=O)N[C@@H](CCCCN)C(=O)N[C@@H](CCCCN)C(N)=O [Oct-(SEQ ID NO: 137)-NH2] (Octanoyl-LKKLLKK-NH2) | 4.80
CCCCCCCC(=O)N[C@@H](CC(C)C)C(=O)N[C@@H](CCCCN)C(=O)N[C@@H](CCCCN)C(=O)N[C@@H](CC(C)C)C(=O)N[C@@H](CC(C)C)C(=O)N[C@@H](CCCCN)C(=O)N[C@@H](CC(C)C)C(=O)N[C@@H](CC(C)C)C(=O)N[C@@H](CCCCN)C(N)=O [Oct-(SEQ ID NO: 138)-NH2] (Octanoyl-LKKLLKLLK-NH2) | 1.00
CCCCCCCC(=O)N[C@H](CC(C)C)C(=O)N[C@H](CCCCN)C(=O)N[C@H](CCCCN)C(=O)N[C@H](CC(C)C)C(=O)N[C@H](CC(C)C)C(=O)N[C@H](CCCCN)C(=O)N[C@H](CCCCN)C(=O)N[C@H](CC(C)C)C(=O)N[C@H](CCCCN)C(=O)N[C@H](CCCCN)C(=O)N[C@H](CC(C)C)C(N)=O [Oct-D-(SEQ ID NO: 110)-NH2] (Octanoyl-[dL][dK][dK][dL][dL][dK][dK][dL][dK][dK][dL]-NH2) | 0.97
Oct-D-(SEQ ID NO:110)-NH2 -melibionic acid: Oct-D-(SEQ ID NO:110)-NH2 with melibionic acid, not further explained (Octanoyl-LKKLLKKLKKL-NH2; not fully specified (some residues); also: melibionic acid, not further explained) | 45.00
